Assay results taken from ChEMBL document CHEMBL1201862, “PubChem BioAssay data set” (2004).
Activity calls are given as the source filed them.

How the values were obtained:
[1] = biological target: Aryl hydrocarbon receptor (Homo sapiens, UniProt P35869); assay: Luminescence-based cell-based high throughput dose response assay for activators of the Aryl Hydrocarbon Receptor (AHR). [Related pubchem assays: 2796 (Primary screen (AHR activators in singlicate)), 2845 (Confirmation screen (AHR activators in triplicate)), 434939 (Counterscreen (PXR activators in triplicate)), 2804 (Summary (AHR activators))]; format: ADME
[2] = system: INS1; assay: beta cell apoptosis inhibitors, cytokine rescue, dose response, luminescence, retest (AID 449756); format: functional, cell-based; conditions: Rattus norvegicus;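 note: cell death triggered by IL-1 beta plus TNF-alpha plus IFN-gamma mixture; protective hits raise ATP signal compared with cytokine alone wells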
[3] = cytotoxicity toward NIH3T3 fibroblasts, dose response, counter-screen, cell-based, ATP luminescence, mouse fibroblasts (AID 2010); format: functional;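 note: cells exposed to compound for about 90 hours before reading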
[4] = inhibitors of intracellular T. cruzi replication, confirmation, NIH3T3 host cells, beta-gal luminescence (AID 2044); format: functional, cell-based;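 note: intracellular parasites grown in NIH/3T3 mouse fibroblasts as host cells; luminescent beta-galactosidase reporter signal from transgenic T. cruzi replicating inside host cells; inhibitors lower the luminescence signal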
[5] = biological target: Paired box protein Pax-8 (Homo sapiens, UniProt Q06710); assay: inhibitors of PAX8-driven TPO luciferase reporter, dose response, RMG-I cells, cherry-pick (AID 687027); format: functional, cell-based;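 note: luciferase reporter driven by Pax8 target thyroperoxidase promoter measured by SteadyGlo luminescence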
[6] = control 3'UTR Renilla luciferase suppression, dose response, counter-screen for Shn3 inhibitor project, cell-based, Clone20-Shn3RL, cherry-picked (AID 624133); format: functional
[7] = cells
[8] = HepG2 cell cytotoxicity, dose response, cytotoxicity control for Shn3 inhibitor project, CellTiter-Glo, cherry-picked (AID 624134); format: functional, cell-based
[9] = Shn3 3'UTR reporter inhibitors, dose response, cell-based, Clone20 osteoblasts, firefly luciferase, cherry-picked (AID 624132); format: functional;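 note: firefly luciferase luminescence from reporter carrying the Shn3 3'UTR in osteoblasts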
[10] = biological target: Protein-tyrosine kinase 2-beta (Homo sapiens, UniProt Q14289);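 note: potency of inhibitors of PYK2 kinase phosphorylation of poly-GT substrate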
Protein-tyrosine kinase 2-beta, sequence (Q14289 whole entry): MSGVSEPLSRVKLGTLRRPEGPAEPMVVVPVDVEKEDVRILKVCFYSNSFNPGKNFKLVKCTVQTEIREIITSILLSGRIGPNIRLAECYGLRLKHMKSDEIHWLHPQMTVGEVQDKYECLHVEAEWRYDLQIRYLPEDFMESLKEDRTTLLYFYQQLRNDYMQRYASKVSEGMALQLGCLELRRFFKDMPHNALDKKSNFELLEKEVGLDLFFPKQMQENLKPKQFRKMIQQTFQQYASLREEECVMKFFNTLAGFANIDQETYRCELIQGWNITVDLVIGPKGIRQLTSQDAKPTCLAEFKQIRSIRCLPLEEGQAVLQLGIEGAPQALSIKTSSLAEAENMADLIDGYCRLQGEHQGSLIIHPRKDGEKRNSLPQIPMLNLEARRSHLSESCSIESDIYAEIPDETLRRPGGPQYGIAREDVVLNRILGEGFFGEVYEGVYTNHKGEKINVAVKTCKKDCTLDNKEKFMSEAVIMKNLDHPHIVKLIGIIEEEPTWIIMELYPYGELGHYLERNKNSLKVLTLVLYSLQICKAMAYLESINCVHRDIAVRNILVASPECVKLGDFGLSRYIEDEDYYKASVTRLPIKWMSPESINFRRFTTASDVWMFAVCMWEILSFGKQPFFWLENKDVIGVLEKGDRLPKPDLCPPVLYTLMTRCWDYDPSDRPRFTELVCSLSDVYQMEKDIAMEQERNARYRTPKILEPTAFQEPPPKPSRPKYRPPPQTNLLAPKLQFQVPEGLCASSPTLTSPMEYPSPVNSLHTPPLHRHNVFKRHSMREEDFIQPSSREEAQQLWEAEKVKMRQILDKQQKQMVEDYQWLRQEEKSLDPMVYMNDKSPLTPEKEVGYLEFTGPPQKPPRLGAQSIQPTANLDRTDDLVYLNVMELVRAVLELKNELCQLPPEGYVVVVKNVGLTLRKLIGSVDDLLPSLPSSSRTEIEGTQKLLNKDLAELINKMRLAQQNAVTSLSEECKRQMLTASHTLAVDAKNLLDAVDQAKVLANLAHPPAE

[11] = biological target: Glyceraldehyde-3-phosphate dehydrogenase (Homo sapiens, UniProt P04406)
[12] = biological target: T1, Dual specificity protein phosphatase 6 (Rattus norvegicus, UniProt Q64346); format: functional
T1 sequence (Q64346 whole entry): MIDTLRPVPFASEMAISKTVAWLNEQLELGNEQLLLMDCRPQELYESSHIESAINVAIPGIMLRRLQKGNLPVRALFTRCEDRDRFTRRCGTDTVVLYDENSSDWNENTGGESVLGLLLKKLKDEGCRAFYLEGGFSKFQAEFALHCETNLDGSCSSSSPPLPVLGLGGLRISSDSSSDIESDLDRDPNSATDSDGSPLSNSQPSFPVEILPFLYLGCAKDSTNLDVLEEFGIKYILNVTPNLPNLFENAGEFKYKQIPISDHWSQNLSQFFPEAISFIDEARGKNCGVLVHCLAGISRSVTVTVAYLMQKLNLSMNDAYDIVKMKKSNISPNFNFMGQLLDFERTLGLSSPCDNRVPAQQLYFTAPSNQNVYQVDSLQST

[13] = biological target: T2, Tyrosine-protein phosphatase non-receptor type 7 (Homo sapiens, UniProt P35236); format: functional
T2 sequence (P35236 whole entry): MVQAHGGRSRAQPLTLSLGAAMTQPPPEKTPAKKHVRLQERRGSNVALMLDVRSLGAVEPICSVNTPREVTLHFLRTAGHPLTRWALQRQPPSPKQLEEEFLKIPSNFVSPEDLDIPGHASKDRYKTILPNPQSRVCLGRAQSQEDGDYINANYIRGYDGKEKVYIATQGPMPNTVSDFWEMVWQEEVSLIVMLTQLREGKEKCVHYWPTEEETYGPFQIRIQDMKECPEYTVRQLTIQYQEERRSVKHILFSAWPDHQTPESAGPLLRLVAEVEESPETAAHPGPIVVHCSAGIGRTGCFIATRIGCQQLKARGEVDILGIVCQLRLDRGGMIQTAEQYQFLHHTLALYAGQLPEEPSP

[14] = biological target: T3, Induced myeloid leukemia cell differentiation protein Mcl-1 (Homo sapiens, UniProt Q07820); assay: MCL1-BIM BH3 interaction inhibitors, dose response, biochemical, fluorescence polarization, BIM-BH3 peptide, 1536-well (AID 2217)
T3 sequence (Q07820 whole entry): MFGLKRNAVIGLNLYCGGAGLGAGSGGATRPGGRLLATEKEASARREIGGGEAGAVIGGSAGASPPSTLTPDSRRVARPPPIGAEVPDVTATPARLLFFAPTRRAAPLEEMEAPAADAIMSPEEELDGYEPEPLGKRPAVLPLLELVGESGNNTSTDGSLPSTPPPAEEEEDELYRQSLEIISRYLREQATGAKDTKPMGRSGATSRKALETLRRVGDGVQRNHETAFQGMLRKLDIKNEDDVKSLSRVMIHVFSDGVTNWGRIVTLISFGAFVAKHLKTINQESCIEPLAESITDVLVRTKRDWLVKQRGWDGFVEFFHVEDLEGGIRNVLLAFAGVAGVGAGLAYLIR

[15] = biological target: T1, Dual specificity protein phosphatase 6
[16] = biological target: T3, Induced myeloid leukemia cell differentiation protein Mcl-1; format: functional
[17] = biological target: Bcl-2-like protein 1 (Homo sapiens, UniProt Q07817); assay: BCL-XL inhibitors, dose response, selectivity assay for MCL1 inhibitor project, biochemical, fluorescence polarization, 1536-well (AID 2218)
[18] = biological target: Ubiquitin carboxyl-terminal hydrolase BAP1 (Homo sapiens, UniProt Q92560); assay: BAP1 deubiquitinase inhibitors, dose response, biochemical (AID 714); format: functional
[19] = biological target: T4, Voltage-gated N-type calcium channel alpha-1B subunit/Amyloid beta A4 precursor protein-binding family A member 1 (Homo sapiens, UniProt Q00975+Q02410); format: protein assay
T4 sequence (Q00975 whole entry): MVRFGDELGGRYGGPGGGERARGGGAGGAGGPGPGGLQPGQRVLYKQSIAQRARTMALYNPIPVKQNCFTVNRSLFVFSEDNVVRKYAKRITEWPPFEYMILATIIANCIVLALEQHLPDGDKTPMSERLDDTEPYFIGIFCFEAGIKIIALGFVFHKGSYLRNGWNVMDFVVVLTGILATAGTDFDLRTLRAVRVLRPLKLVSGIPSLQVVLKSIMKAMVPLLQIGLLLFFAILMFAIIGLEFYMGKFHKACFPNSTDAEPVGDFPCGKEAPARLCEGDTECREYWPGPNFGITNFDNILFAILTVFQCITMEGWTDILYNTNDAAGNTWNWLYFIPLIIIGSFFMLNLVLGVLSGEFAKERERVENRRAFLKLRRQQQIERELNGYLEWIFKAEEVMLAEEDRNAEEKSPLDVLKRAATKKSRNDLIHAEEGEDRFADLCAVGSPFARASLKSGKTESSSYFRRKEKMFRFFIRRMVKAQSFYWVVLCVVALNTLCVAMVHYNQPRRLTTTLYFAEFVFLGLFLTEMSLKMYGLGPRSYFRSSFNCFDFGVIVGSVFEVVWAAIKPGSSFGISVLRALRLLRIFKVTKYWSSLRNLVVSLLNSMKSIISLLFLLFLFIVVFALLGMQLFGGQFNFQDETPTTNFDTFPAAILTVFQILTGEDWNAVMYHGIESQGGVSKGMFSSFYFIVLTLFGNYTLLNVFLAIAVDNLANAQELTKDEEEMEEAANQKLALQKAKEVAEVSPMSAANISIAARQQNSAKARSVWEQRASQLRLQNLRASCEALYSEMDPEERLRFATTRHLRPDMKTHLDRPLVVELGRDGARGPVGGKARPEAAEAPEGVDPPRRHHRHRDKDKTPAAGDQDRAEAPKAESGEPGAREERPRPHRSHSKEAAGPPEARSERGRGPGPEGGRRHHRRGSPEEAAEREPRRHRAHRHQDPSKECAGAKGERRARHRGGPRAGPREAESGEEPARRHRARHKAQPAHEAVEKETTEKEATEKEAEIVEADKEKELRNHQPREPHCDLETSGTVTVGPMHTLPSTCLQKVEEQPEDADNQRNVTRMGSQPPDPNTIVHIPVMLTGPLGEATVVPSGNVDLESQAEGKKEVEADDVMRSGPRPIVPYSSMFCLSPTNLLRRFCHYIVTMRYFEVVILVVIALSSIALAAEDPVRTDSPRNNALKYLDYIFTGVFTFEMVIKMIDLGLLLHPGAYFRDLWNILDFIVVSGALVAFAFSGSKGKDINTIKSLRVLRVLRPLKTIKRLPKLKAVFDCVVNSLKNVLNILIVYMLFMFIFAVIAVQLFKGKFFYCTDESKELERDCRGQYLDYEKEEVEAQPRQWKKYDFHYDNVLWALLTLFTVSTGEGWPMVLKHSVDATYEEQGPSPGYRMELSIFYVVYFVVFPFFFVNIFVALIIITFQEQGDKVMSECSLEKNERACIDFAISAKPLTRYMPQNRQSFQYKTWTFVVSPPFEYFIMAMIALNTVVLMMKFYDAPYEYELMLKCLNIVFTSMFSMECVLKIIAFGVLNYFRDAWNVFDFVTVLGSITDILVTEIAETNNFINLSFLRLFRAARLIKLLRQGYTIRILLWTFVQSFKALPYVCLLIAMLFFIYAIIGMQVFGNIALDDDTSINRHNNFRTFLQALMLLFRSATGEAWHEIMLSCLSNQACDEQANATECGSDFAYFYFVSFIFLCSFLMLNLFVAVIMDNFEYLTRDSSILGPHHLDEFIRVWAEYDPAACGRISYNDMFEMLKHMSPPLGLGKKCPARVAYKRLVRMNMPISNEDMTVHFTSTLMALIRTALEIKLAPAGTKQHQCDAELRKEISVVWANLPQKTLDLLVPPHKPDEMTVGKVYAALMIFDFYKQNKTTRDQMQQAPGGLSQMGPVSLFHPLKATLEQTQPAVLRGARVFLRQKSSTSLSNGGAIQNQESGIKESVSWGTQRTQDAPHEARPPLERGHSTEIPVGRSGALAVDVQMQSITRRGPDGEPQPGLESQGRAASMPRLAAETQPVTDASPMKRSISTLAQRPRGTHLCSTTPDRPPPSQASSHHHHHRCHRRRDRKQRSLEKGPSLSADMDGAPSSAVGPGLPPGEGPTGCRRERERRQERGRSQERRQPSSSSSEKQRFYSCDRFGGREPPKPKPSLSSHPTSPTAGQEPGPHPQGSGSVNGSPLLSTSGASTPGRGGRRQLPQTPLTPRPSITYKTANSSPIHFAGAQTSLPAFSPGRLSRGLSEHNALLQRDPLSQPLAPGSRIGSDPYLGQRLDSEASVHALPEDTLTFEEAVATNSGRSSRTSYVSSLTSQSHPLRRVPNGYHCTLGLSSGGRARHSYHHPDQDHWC
T4 sequence (Q02410 whole entry): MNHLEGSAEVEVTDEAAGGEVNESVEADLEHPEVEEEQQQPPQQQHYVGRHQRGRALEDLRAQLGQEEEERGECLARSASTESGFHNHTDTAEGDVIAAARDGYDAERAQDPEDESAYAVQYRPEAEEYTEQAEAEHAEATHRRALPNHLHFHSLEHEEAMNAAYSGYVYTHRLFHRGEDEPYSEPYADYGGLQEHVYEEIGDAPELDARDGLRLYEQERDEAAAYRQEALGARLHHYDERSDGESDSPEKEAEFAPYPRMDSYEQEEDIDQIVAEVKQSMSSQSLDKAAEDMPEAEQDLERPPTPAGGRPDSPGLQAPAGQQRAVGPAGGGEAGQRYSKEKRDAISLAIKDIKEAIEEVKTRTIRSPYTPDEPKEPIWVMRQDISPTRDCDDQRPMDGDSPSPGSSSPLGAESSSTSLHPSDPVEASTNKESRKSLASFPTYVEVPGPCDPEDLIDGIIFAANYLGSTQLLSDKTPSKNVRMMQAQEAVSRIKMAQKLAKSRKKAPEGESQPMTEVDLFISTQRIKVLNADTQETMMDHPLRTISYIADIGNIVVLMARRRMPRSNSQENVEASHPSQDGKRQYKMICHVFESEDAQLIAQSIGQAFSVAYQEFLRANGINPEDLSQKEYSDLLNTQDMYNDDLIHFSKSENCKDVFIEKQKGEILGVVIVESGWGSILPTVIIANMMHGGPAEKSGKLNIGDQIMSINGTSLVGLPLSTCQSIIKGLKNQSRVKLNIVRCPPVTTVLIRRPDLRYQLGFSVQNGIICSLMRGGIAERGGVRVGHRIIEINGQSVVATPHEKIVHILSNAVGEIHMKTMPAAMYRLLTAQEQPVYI

[20] = biological target: T5, Insulin-degrading enzyme (Homo sapiens, UniProt P14735); assay: Dose Response: Fluorescence polarization-based cell-based high throughput dose response assay for inhibitors of insulin-degrading enzyme (IDE). [Related pubchem assays: 434962 (Primary screen (IDE inhibitors in singlicate)), 449730 (Counterscreen (Cytotoxicity in triplicate)), 435028 (Confirmation (IDE inhibitors in triplicate)), 434984 (Summary …; format: functional
T5 sequence (P14735 whole entry): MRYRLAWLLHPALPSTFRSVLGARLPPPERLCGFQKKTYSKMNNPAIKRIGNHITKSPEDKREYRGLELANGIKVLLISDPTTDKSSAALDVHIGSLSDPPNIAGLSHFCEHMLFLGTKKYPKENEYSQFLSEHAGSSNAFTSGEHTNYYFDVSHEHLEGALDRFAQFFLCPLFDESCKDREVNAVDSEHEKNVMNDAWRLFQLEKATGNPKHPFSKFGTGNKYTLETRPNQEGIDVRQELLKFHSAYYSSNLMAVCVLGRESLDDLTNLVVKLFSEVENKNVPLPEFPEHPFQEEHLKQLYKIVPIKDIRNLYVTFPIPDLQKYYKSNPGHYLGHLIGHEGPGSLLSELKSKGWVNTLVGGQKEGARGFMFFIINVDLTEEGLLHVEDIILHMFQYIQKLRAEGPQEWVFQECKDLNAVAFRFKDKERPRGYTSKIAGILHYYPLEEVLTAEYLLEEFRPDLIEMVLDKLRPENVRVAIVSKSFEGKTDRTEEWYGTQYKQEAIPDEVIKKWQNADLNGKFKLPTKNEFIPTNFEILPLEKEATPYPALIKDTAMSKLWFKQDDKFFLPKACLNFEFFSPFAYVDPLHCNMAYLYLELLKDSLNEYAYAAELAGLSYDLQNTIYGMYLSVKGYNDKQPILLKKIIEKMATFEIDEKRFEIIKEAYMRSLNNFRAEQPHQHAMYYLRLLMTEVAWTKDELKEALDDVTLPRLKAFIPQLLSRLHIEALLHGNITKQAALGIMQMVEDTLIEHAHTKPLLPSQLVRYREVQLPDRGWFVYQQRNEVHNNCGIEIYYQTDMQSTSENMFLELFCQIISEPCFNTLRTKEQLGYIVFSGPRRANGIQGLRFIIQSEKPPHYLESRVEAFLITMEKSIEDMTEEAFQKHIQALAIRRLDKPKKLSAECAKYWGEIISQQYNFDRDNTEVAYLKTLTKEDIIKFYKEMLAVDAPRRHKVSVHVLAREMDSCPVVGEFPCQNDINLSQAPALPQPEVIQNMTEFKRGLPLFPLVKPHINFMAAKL

[21] = biological target: T6, Mannose-6-phosphate isomerase (Homo sapiens, UniProt P34949); assay: human PMI inhibitors, high substrate, primary screen, biochemical, fluorescence intensity, high mannose 6-phosphate (AID 1220)
T6 sequence (P34949 whole entry): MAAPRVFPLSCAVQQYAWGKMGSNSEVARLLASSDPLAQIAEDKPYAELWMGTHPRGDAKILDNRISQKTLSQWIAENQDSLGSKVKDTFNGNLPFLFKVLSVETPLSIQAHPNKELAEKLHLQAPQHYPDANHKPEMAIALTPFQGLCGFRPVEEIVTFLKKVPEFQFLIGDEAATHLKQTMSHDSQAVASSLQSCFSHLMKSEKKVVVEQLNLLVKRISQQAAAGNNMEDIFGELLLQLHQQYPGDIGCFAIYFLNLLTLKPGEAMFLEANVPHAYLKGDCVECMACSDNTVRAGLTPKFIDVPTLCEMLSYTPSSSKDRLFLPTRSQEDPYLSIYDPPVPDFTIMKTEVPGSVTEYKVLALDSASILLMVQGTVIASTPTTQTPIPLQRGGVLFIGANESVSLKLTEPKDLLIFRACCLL

[22] = biological target: T4, Voltage-gated N-type calcium channel alpha-1B subunit/Amyloid beta A4 precursor protein-binding family A member 1; format: protein assay; remark: listed apart in the source
[23] = biological target: T7, NADPH oxidase 1 (Homo sapiens, UniProt Q9Y5S8); assay: Luminescence-based cell-based dose response assay to identify inhibitors of NADPH oxidase 1 (NOX1).; format: functional
T7 sequence (Q9Y5S8 whole entry): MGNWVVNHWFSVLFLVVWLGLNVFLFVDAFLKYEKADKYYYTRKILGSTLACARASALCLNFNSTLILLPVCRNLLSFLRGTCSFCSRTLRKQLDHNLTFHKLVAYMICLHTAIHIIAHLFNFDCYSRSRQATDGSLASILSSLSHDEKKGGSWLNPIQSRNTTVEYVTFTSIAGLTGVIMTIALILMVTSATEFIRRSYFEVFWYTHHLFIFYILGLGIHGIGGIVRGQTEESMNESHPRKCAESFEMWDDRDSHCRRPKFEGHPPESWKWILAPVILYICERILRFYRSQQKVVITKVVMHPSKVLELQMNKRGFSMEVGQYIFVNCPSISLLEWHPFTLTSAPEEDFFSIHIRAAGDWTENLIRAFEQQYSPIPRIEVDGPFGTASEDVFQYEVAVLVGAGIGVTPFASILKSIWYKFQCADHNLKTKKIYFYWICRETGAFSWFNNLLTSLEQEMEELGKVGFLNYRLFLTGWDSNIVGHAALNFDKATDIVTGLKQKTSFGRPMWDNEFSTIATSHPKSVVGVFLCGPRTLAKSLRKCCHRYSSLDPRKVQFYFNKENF

[24] = Luminescence Cell-Based Dose Response to Identify Activators of Luciferase Translation or Activity in H4-C Neuroglioblastoma Cells. [Related pubchem assays: 1829 (Project Summary), 1814 (Primary HTS)]; format: functional
[25] = Luminescence Cell-Based Dose Response HTS to Identify Activators of Luciferase Translation or Activity in H4 […] Cells. [Related pubchem assays: 1829 (Project Summary), 1814 (Primary HTS)]; format: functional
[26] = system: H4; assay: Luminescence Cell-Based Dose Response HTS to Identify Activators of 5'UTR Stem-Loop Driven Prion Protein mRNA Translation in H4 Neuroglioblastoma Cells. [Related pubchem assays: 1829 (Project Summary), 1814 (Primary HTS)]; format: functional; conditions: Homo sapiens
[27] = Luminescence Cell-Based Dose Confirmation to Identify Activators of 5'UTR Stem-Loop Driven Alpha-Synuclein mRNA Translation in H4 Neuroglioblastoma Cells. [Related pubchem assays: 1829 (Project Summary), 1814 (Primary HTS)]; format: functional
[28] = Luminescence Cell-Based Dose Response to Identify Activators of 5'UTR Stem-Loop Driven Prion Protein mRNA Translation in H4-C Neuroglioblastoma Cells. [Related pubchem assays: 1829 (Project Summary), 1814 (Primary HTS)]; format: functional
[29] = biological target: Photoreceptor-specific nuclear receptor (Homo sapiens, UniProt Q9Y5X4); assay: NR2E3 inverse agonists, dose response, biochemical, TR-FRET (AID 463256); format: functional
Photoreceptor-specific nuclear receptor, sequence (Q9Y5X4 whole entry): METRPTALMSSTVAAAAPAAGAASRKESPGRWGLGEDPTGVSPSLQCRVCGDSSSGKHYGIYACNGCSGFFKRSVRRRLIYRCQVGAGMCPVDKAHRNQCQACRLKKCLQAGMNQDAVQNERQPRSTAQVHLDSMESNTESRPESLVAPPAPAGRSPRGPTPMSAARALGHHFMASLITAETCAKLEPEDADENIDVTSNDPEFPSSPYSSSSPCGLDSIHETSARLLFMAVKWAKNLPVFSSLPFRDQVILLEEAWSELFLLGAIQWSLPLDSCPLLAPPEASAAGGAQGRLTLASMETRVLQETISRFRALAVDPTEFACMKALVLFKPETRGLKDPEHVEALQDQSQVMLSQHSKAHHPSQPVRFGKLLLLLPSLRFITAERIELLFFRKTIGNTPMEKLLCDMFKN

[30] = biological target: Peroxisome proliferator-activated receptor gamma/Nuclear receptor corepressor 2 (Homo sapiens, UniProt P37231+Q9Y618); assay: Counterscreen for NR2E3 inverse agonists: TR-FRET-based biochemical high throughput dose response assay to identify inverse agonists of the interaction between peroxisome proliferator-activated receptor gamma (PPARg) and nuclear receptor co-repressor 2 (NCOR2).; format: functional
[31] = M. tuberculosis H37Rv growth inhibitors, H37Rv strain (AID 1626); format: functional
[32] = biological target: 14-3-3 protein gamma (Homo sapiens, UniProt P61981); assay: modulators of 14-3-3 gamma client binding – dose response (AID 711); format: functional

CCc1ccc2[nH]c3nc(N/N=C/c4ccc(O)cc4O)nnc3c2c1
EC50 [1]: > 91.7 µM (not active)
AC50 [2]: 1.58 µM (active)
EC50 [3]: 17.7 µM (active)
EC50 [4]: 2.44 µM (active)
AC50 [5]: 2.7 µM (active)

c1ccc(Nc2nc(NCC3CCCO3)c3ccccc3n2)cc1 (centres undefined)
AC50 [6]: 4.84 µM (active)
EC50 [3]: > 60 µM (not active)
EC50 [7]: 0.131 µM (active)
EC50 [4]: < 0.1 µM (active)
AC50 [8]: 7.09 µM (active)
AC50 [9]: 21.7 µM (active)

Cc1cc(NC(=O)Cc2cccs2)no1
IC50 [10]: 6.64 µM (active)
IC50 [11]: 92.2 µM (active)
IC50 [12]: 13.1 µM (active)
IC50 [13]: 3.93 µM (active)
IC50 [14]: 4.05 µM (active)
IC50 [15]: 15.3 µM (active)
IC50 [16]: 1.58 µM (active)
IC50 [17]: 53.2 µM (not active)

N#Cc1c(NC(=O)CSc2ncnc3c2cnn3-c2ccccc2Cl)sc2c1CCCC2
IC50 [18]: > 50 µM (not active)

O=c1[nH]c2ccccc2c(O)c1O
IC50 [19]: 2.71 µM (active)
IC50 [20]: 3.28 µM (active)
IC50 [21]: 9.69 µM (active)
IC50 [22]: 28.5 µM (active)

CCOc1ccc(NC(=O)Nc2ccc(N(C)C(C)=O)cc2)cc1
IC50 [23]: > 20 µM (not active)

Cc1cc(C(=O)ON=C(N)c2ccc(C(C)(C)C)cc2)no1
EC50 [24]: 0.442 µM (active)
EC50 [25]: < 0.1 µM (inconclusive)
EC50 [26]: 110 µM (active)
EC50 [27]: 0.737 µM (active)
EC50 [28]: 1.78 µM (active)

CC(=O)Nc1ccc(NC(=O)CNC(=O)c2sc3ccccc3c2Cl)cc1
IC50 [29]: 15.5 µM (not active)
IC50 [30]: 11.1 µM (not active)

Nc1ccc(N=Nc2ccccc2)cc1
IC50 [31]: > 100 µM (active)

OC(CN1CCOCC1)CN(c1ccccc1)c1ccccc1 (centres undefined)
IC50 [32]: > 50 µM (not active)
